Assay results published in article PMC7602804 (Nutrients, 2020).
No end group written: not given here.

Columns and labels:
[1] = system: pepsin, then trypsin, chymotrypsin and elastase; experiment: In vitro simulation of gastrointestinal digestion; assay type: in vitro ADME; conditions: 37 °C
Description: The purified milk peptides and the synthesized PIGSENSEKTTMPLW and […] peptides were subjected to digestion, essentially as described in [5, 26] with few modifications. The peptides were dissolved in 0.15 M of NaCl with a pH of 2.5 at a concentration of 1 mg/mL and incubated with pepsin from porcine gastric mucosa in a 1:100 w/w enzyme to substrate ratio for 60 min at 37 °C. Before digestion with pancreatic proteases, the sample was lyophilized and washed twice in deionized water. Trypsin and chymotrypsin from a bovine pancreas (Worthington Biochemical Corporation, NJ, USA) (1:100 w/w) and elastase (Worthington) (1:500 w/w) were added in 50 mM of ammonium bicarbonate buffer (pH = 7.6) and the mixture was incubated for 60 min at 37 °C. In digests of the synthesized peptides, aliquots were sampled and analyzed after 5 min, 30 min, 60 min and 270 min incubation with the intestinal enzymes. Bovine milk osteopontin was purified as previously described and incubated with the digestive proteases to validate their activity. The digested milk peptides were separated by RP-HPLC on an Aeris C4 widepore column (Phenomenex, Værløse, Denmark) connected to a Shimadzu (Kyoto, Japan) HPLC system. The peptides were separated in 0.1% TFA (buffer A) and eluted with a gradient of 60% acetonitrile in 0.1% TFA (buffer B) at 40 °C. The gradient was developed over 59 min (0–5 min: 0% buffer B; 5–49 min: 0–98% buffer B; 49–59 min: 98% buffer B) at a flow rate of 0.85 mL/min. The peptides were detected by measuring the absorbance at 226 nm and analyzed by matrix-assisted laser desorption ionization time-of-flight mass spectrometry (MALDI-MS).
MALDI-MS was performed using a Bruker Autoflex III instrument (Bruker Daltonics, Bremen, Germany). The analysis was performed using a saturated solution of α-cyano-4-hydroxycinnamic acid. The instrument was operated in reflected positive ionization mode and calibrated in the mass range of 1000 to 3200 Da using a peptide calibration standard (Bruker Daltonics, Bremen, Germany). The theoretical peptide masses were calculated using the General Protein/Mass Analysis for Windows software (Lighthouse Data, Odense, Denmark).

[2] = system: porcine brain endothelial cell (PBEC) monolayers; experiment: Apical to basolateral transport of milk peptides across porcine brain endothelial cell (PBEC) monolayers, blood-brain barrier model; assay type: in vitro ADME; conditions: 2.5 h
Description: Capillaries were isolated from the brain cortices of domestic pigs 5–6 months old as previously described. PBECs were cultured by plating the capillaries in T75 flasks coated with collagen IV (500 µg/mL) and fibronectin (100 µg/mL) in DMEM-F12 medium, supplemented with 10% plasma-derived serum (First Link, Wolverhampton, UK), heparin (15 U), 100 units/mL of penicillin and 100 µg/mL of streptomycin (PBEC growth medium), and cultured in an incubator with humidified 5% CO2/95% air at 37 °C. Puromycin (4 µg/mL) was added to the growth medium for the first three days to obtain a pure culture of PBECs.
Astrocyte conditioned medium was collected every third day from primary rat astrocytes, sterile filtered and frozen until use. Isolation of primary rat astrocytes and preparation of astrocyte conditioned media were carried out as described in [20].
PBECs were grown until 70–80% confluency as described above and then passaged onto polyester culture inserts with a pore size of 0.4 μm and a growth area of 1.12 cm^2 (Costar, Corning, NY, USA) at a density of 1.1 × 10^5 cells/cm^2 in the PBEC growth medium. In the basolateral chamber, the medium consisted of 1 mL of PBEC growth medium and 0.5 mL of astrocyte conditioned medium. The medium was supplemented with differentiation factors: 550 nM of hydrocortisone, 250 μM of 8-(4-chlorophenylthio)adenosine-3′,5′-cyclic monophosphate (cAMP) and 17.5 μM of RO-201724 two days after seeding. The next day, the integrity of the PBEC monolayer was confirmed by measuring the TEER. Only PBEC monolayers with TEER values higher than 800 Ω cm^2 were used for the transport analysis.
Following the TEER value measurement, the Caco-2 and PBEC monolayers were gently washed twice with phosphate-buffered saline, and the transport medium (Hanks’ Balanced Salt solution supplemented with 10 mM of HEPES) was added to the apical and basolateral compartments. The inserts were incubated for 15 min or 2.5 h with the purified milk peptides (0.1 mg/mL) or the synthetic PIGSENSEKTTMPLW peptide (2 µg/mL), after which medium from the apical and basolateral compartments were collected for liquid chromatography tandem mass spectrometry (LC-MS/MS) analysis. Inserts incubated with a medium without peptides served as the control in the transport experiments. Membrane integrity was validated by addition of D-[1-^14C]-Mannitol (3.5 µM, 56.8 mCi/mmol) (Perkin Elmer, Waltham, MA, USA) to the upper chamber of the culture inserts with or without milk peptides for 2.5 h. The passive permeability experiments were performed on four or five individual culture inserts. Basolateral samples were mixed with Ultima Gold liquid scintillation fluid (Perkin Elmer) and counted in a Tri-Carb 2810 TR scintillation counter (Perkin Elmer). The apparent permeability coefficient (Papp, cm/s) was determined as Papp = (dQ/dt)/(AC0) where dQ/dt is the steady state flux (cpm/s), A is the surface area of the cell culture insert membrane and C0 is the initial concentration in the apical compartment (cpm/mL).
LC-MS/MS analysis was performed on a TripleTOF 6600 mass spectrometer equipped with an Exigent nanoLC 415 system (AB Sciex, Les Ulis, France). All samples were micro-purified using 3 M Empore C18 discs packed in pipette tips. The lyophilized samples were dissolved in 0.1% formic acid, injected on a trap column (2 cm × 100 µm inner diameter) and separated on an analytical column packed in-house in a pulled emitter (15 cm × 75 µm inner diameter). All columns were packed with ReproSil-Pur C18-AQ 3 µm resin (courtesy of Dr. Marisch, Ammerbuch-Entringen, Germany). […]

- Stability of the synthetic peptide / control in simulated gastrointestinal digestion ([1]; 1 mg/mL, pepsin 1:100 w/w, 0.15 M NaCl pH 2.5, 60 min, chymotrypsin 1:100 and elastase 1:500 w/w, 50 mM ammonium bicarbonate pH 7.6, 37 °C, sampled 5, 30, 60 and 270 min, MALDI-MS (osteopontin: SDS-PAGE)): observed even after 270 min of digestion
- Resistance to simulated gastrointestinal digestion within the purified milk peptide mix ([1]; purified milk peptides 1 mg/mL, pepsin 1:100, pH 2.5, 60 min, chymotrypsin 1:100, elastase 1:500, pH 7.6, 60 min, RP-HPLC fractions, MALDI-MS, before and after digestion): observed
- Peptide identified in the basal compartment (brain side) of the PBEC BBB model (transported) ([2]; primary PBEC on polyester inserts 0.4 μm, astrocyte conditioned medium, TEER higher than 800 Ω cm^2, A-B, mix of 192 milk peptides 0.1 mg/mL apical, HBSS + 10 mM HEPES, LC-MS/MS, five independent studies, αS1 peptide 'or' its truncated peptides stated collectively): identified in all experiments
Sequence: PIGSENSEKTTMPLW [PIGSENSEKTTMPLW]
- Fate of synthetic peptide during transport over PBEC monolayers ([2]; synthetic peptide 2 µg/mL apical, LC-MS/MS of basal medium): cleaved by carboxypeptidases during the transport
